The target in assay [1] is T1, Lp-PLA2 in human plasma (Homo sapiens, UniProt Q13093).
T1 construct: from tissue; host or cells: pooled human plasma
T1 sequence (Q13093 22-441): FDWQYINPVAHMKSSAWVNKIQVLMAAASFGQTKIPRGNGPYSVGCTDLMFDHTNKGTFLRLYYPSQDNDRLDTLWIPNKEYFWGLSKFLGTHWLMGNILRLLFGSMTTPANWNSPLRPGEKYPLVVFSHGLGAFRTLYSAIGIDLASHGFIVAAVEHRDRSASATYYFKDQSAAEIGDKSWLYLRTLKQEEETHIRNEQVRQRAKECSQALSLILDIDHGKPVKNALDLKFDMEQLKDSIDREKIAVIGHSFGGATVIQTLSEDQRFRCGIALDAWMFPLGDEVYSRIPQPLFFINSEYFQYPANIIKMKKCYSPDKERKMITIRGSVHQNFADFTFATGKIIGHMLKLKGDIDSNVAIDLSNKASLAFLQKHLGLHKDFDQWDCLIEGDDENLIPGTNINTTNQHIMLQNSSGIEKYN
Kind of assay: Lp-PLA2 human plasma assay (Thio-PAF assay). In kind it is biochemical. The note with it: pooled human plasma; read-out: pIC50 values in the thio-PAF assay (converted). In short, it runs like this:
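Pooled human plasma preincubated 30 min with compound, then 2-thio-PAF substrate added with CPM and NEM in 50 mM HEPES pH 7.4, 150 mM NaCl, 1 mM CHAPS. Quenched with TFA after 2 min, incubated 40 min at room temperature, and read by fluorescence at ex 380/em 485 nm. Values given as pIC50.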

The target of assay [2] is T2, recombinant human Lp-PLA2 (Homo sapiens, UniProt Q13093).
T2 sequence (Q13093 22-441): T1 sequence (Q13093 22-441)
The assay is described as follows: Recombinant human Lp-PLA2 assay (rhLp-PLA2, PED6 assay). In kind it is biochemical. In short, it runs like this: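 Enzyme (4 nM or 110 pM, as stated for the 5 μL addition) preincubated 30 min with compound in 50 mM HEPES pH 7.4, 150 mM NaCl, 1 mM CHAPS, then PED6 substrate (4 or 5 μM in the addition) added. Fluorescence (ex 480/em 540) read after 20 min, room temperature; pIC50 from curve fitting.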

Setting [3] is: read-out: pIC50 values in the recombinant human Lp-PLA2 assay (converted).

Like-named read-outs stand apart in the source and are kept apart here. Some results are limits rather than exact numbers.

For the compound `C[C@H]1CCn2c(cc(OCc3ccc(Oc4ccc(C(F)(F)F)nc4)c(C#N)c3)nc2=O)N1C` [E113, (S)-5-(((1,2-dimethyl-6-oxo-2,3,4,6-tetrahydro-1H-pyrimido[1,6-a]pyrimidin-8-yl)oxy)methyl)-2-((6-(trifluoromethyl)pyridin-3-yl)oxy)benzonitrile], the figures for the IC50 in assay [1] and in assay [2] (setting [3]) were no more than 100 nM and no more than 1 nM, respectively.
On the same counts, the results for `C[C@@H]1CCn2c(cc(OCc3ccc(Oc4ccc(F)c(F)c4)c(C#N)c3)nc2=O)N1C` [E114, (R)-2-(3,4-difluorophenoxy)-5-(((1,2-dimethyl-6-oxo-2,3,4,6-tetrahydro-1H-pyrimido[1,6-a]pyrimidin-8-yl)oxy)methyl)benzonitrile] are no more than 10 nM and no more than 1 nM.
Take `C[C@@H]1CCn2c(cc(OCc3ccc(Oc4ccc(C(F)(F)F)nc4)c(C#N)c3)nc2=O)N1C` [E115, (R)-5-(((1,2-dimethyl-6-oxo-2,3,4,6-tetrahydro-1H-pyrimido[1,6-a]pyrimidin-8-yl)oxy)methyl)-2-((6-(trifluoromethyl)pyridin-3-yl)oxy)benzonitrile]: the IC50 in assay [1] was no more than 10 nM; in assay [2] (setting [3]), no more than 1 nM.
On the same counts, the results for `CN1c2cc(OCc3ccc(Oc4ccc(F)c(C(F)(F)F)c4)c(C#N)c3)nc(=O)n2CCC1(C)C` [E116, 2-(4-fluoro-3-(trifluoromethyl)phenoxy)-5-(((1,2,2-trimethyl-6-oxo-2,3,4,6-tetrahydro-1H-pyrimido[1,6-a]pyrimidin-8-yl)oxy)methyl)benzonitrile] are no more than 10 nM and no more than 1 nM.
As for `CN1c2cc(OCc3ccc(Oc4cccc(F)c4)c(C#N)c3)nc(=O)n2CCC1(C)C` [E117, 2-(3-fluorophenoxy)-5-(((1,2,2-trimethyl-6-oxo-2,3,4,6-tetrahydro-1H-pyrimido[1,6-a]pyrimidin-8-yl)oxy)methyl)benzonitrile], the IC50 was no more than 100 nM in assay [1] and no more than 1 nM in assay [2] (setting [3]).
On the same counts, the results for `CN1c2cc(OCc3ccc(Oc4ccc(F)cc4)c(C#N)c3)nc(=O)n2CCC1(C)C` [E118, 2-(4-fluorophenoxy)-5-(((1,2,2-trimethyl-6-oxo-2,3,4,6-tetrahydro-1H-pyrimido[1,6-a]pyrimidin-8-yl)oxy)methyl)benzonitrile] are no more than 100 nM and no more than 1 nM.
In the same order, the values of `C[C@@H]1CCn2c(cc(OCc3cc(F)c(Oc4ccc(C(F)(F)F)nc4)c(F)c3)nc2=O)N1C` [E119, (R)-8-((3,5-difluoro-4-((6-(trifluoromethyl)pyridin-3-yl)oxy)benzyl)oxy)-1,2-dimethyl-3,4-dihydro-1H-pyrimido[1,6-a]pyrimidin-6(2H)-one] are no more than 100 nM and no more than 1 nM.
Consider `C[C@@H]1CCn2c(cc(OCc3ccc(Oc4cccc(C(F)(F)F)c4)c(F)c3)nc2=O)N1C` [E120, (R)-8-((3-fluoro-4-(3-(trifluoromethyl)phenoxy)benzyl)oxy)-1,2-dimethyl-3,4-dihydro-1H-pyrimido[1,6-a]pyrimidin-6(2H)-one], for which the IC50 in assay [1] was no more than 100 nM; in assay [2] (setting [3]), no more than 1 nM.
For `C[C@@H]1CCn2c(cc(OCc3ccc(Oc4ccc(C(F)(F)F)cc4)c(F)c3)nc2=O)N1C` [E121, (R)-8-((3-fluoro-4-(4-(trifluoromethyl)phenoxy)benzyl)oxy)-1,2-dimethyl-3,4-dihydro-1H-pyrimido[1,6-a]pyrimidin-6(2H)-one], the IC50 in assay [1] is no more than 100 nM; in assay [2] (setting [3]), no more than 1 nM.
`C[C@@H]1CCn2c(cc(OCc3cc(F)c(Oc4ccc(F)cc4)c(F)c3)nc2=O)N1C` [E122, (R)-8-((3,5-difluoro-4-(4-fluorophenoxy)benzyl)oxy)-1,2-dimethyl-3,4-dihydro-1H-pyrimido[1,6-a]pyrimidin-6(2H)-one]: the IC50 in assay [1] was no more than 100 nM; in assay [2] (setting [3]) it was no more than 1 nM.
Take `C[C@@H]1CCn2c(cc(OCc3ccc(Oc4cccc(C(F)(F)F)c4)c(C#N)c3)nc2=O)N1C` [E123, (R)-5-(((1,2-dimethyl-6-oxo-2,3,4,6-tetrahydro-1H-pyrimido[1,6-a]pyrimidin-8-yl)oxy)methyl)-2-(3-(trifluoromethyl)phenoxy)benzonitrile]: the IC50 in assay [1] was no more than 10 nM; in assay [2] (setting [3]), no more than 1 nM.
For `C[C@@H]1CCn2c(cc(OCc3cc(F)c(Oc4ccc(Cl)cc4)c(F)c3)nc2=O)N1C` [E124, (R)-8-((4-(4-chlorophenoxy)-3,5-difluorobenzyl)oxy)-1,2-dim ethyl-3,4-dihydro-1H-pyrimido[1,6-a]pyrimidin-6(2H)-one], the IC50 in assay [1] was no more than 100 nM; in assay [2] (setting [3]) it was no more than 1 nM.
On the same counts, the results for `C[C@@H]1CCn2c(cc(OCc3ccc(Oc4ccc(F)cc4)c(C#N)c3)nc2=O)N1C` [E125, (R)-5-(((1,2-dimethyl-6-oxo-2,3,4,6-tetrahydro-1H-pyrimido[1,6-a]pyrimidin-8-yl)oxy)methyl)-2-(4-fluorophenoxy)benzonitrile] are no more than 100 nM and no more than 1 nM.
In the same order, the values of `C[C@H]1CCn2c(cc(OCc3ccc(Oc4ccc(F)cc4)c(C#N)c3)nc2=O)N1C` [E126, (S)-5-(((1,2-dimethyl-6-oxo-2,3,4,6-tetrahydro-1H-pyrimido[1,6-a]pyrimidin-8-yl)oxy)methyl)-2-(4-fluorophenoxyl)benzonitrile] are no more than 100 nM and no more than 1 nM.
On the same counts, the results for `CN1c2cc(OCc3cccc(C#N)c3)nc(=O)n2CCC1(C)C` [E133, 3-(((1,2,2-trimethyl-6-oxo-2,3,4,6-tetrahydro-1H-pyrimido[1,6-a]pyrimidin-8-yl)oxy)methyl)benzonitrile] are no more than 10 nM and no more than 1 nM.
`CN1c2cc(OCc3ccc(F)cc3)nc(=O)n2CCC1(C)C` [E135, 8-((4-fluorobenzyl)oxy)-1,2,2-trimethyl-3,4-dihydro-1H-pyrimido[1,6-a]pyrimidin-6(2H)-one]: the IC50 in assay [1] is no more than 10 nM; in assay [2] (setting [3]) it was no more than 1 nM.
With `CC(C)N1c2cc(OCc3cc(F)c(F)c(F)c3)nc(=O)n2CC[C@@H]1C` [E140, (S)-1-isopropyl-2-methyl-8-((3,4,5-trifluorobenzyl)oxy)-3,4-dihydro-1H-pyrimido[1,6-a]pyrimidin-6(2H)-one], the IC50 was no more than 100 nM in assay [1] and no more than 1 nM in assay [2] (setting [3]).
On the same counts, the results for `C[C@H]1CCn2c(cc(OCc3ccc(Oc4ccc(C(F)(F)F)nc4)c(F)c3)nc2=O)N1C` [E142, (S)-8-((3-fluoro-4-((6-(trifluoromethyl)pyridin-3-yl)oxy)benzyl)oxy)-1,2-dimethyl-3,4-dihydro-1H-pyrimido[1,6-a]pyrimidin-6(2H)-one] are no more than 10 nM and no more than 1 nM.
Consider `C[C@@H]1CCn2c(cc(OCc3ccc(Oc4ccc(Cl)c(C(F)(F)F)c4)c(F)c3)nc2=O)N1C` [E143], for which the IC50 in assay [1] is no more than 10 nM; in assay [2] (setting [3]), no more than 1 nM.
As to `C[C@@H]1CCn2c(cc(OCc3cc(F)c(Oc4ccnc(C(F)(F)F)c4)c(F)c3)nc2=O)N1C` [E144, (R)-8-((3,5-difluoro-4-((2-(trifluoromethyl)pyridin-4-yl)oxy)benzyl)oxy)-1,2-dimethyl-3,4-dihydro-1H-pyrimido[1,6-a]pyrimidin-6(2H)-one], the IC50 was no more than 10 nM in assay [1], no more than 1 nM in assay [2] (setting [3]) and 0.0251 nM in assay [2] (read-out: rhLp-PLA2 (PED6 assay) (pIC50) (converted)).

Source of the values: patent publication US20150344485A1, “BICYCLIC PYRIMIDONE COMPOUNDS AS INHIBITORS OF LP-PLA2” (GLAXOSMITHKLINE INTELLECTUAL PROPERTY DEVELOPMENT LIMITED, priority 2013, published 2015).
